Laboratory results taken from patent publication US7951370B2, “Anti-TYRP1 antibodies” (ImClone LLC, priority 2008, dated 2011).

What was measured:
[1] = test system: TYRP1 (+) human 624mel cells; assay: Complement dependent cytotoxicity (CDC) assay; type: cell-based; details: for induction of CDC (in words): 624mel cells in vitro; for Human CDC (%): Table 4 summary, 624mel cells
Protocol: Wash human melanoma cell line 624mel 3 times and bring to a concentration of 10^6 viable cells/mL in a suitable media, such as AIM V Media (Invitrogen Life Technologies). […] Add low-Tox-M Rabbit complement (Cedarlane Labs, Westbury, N.Y.) diluted 1:5 in AIM V at 50 μl/well and incubate for 1 hr at 37° C. Count cells for viability with Trypan Blue (Invitrogen Life Technologies).

B16BL6 murine melanoma = assay: B16BL6 metastatic melanoma model (lung surface nodules); type: in vivo, nude mice; details: for Inhibition of lung metastases: B16BL6 i.v., day 20
Protocol: (§1) For the following subcutaneous studies, tumor volumes are calculated by the formula [π/6(W1×W2×W2)], where W1 represents the largest tumor diameter and W2 represents the smallest tumor diameter. % T/C=100×(Treatment Volume/Initial Volume)/(Control Volume/Initial Volume). Statistical analysis is done using traditional p-value techniques. For the subcutaneous studies the p value is calculated based on the tumor volume of animals receiving the anti-TYPR antibody verses the tumor volume of the control animals. […] Statistical analysis is done using traditional p-value techniques. For the metastatic studies the p-value is calculated based on the nodules observed in the animals receiving the anti-TYPR antibody verses the nodules observed in the control animals.
(§2) B16BL6 is an aggressive and spontaneously arising murine melanoma. It forms lung metastases in nude mice after intravenous administration. Harvest, wash and resuspend cultured SKmel23 and B16BL6 cells melanoma cells in RPMI 1640 media (10% FBS heat inactivated).
(§3) Model 1: Inject 1×10^5 B16BL6 cells intravenously. On the second day after the tumor injection, administer to mice anti-TYRP1 antibodies or control human IgG, according to three different dose concentrations (200 μg/mouse, 500 μg/mouse, and 1 mg/mouse). Sacrifice mice on day 20, remove lungs, count lung surface nodules and calculate percent inhibition.
(§4) For the subcutaneous model, harvest, wash and resuspend cultured 624mel cells, in a 50/50 solution of Matrigel and RPMI 1640 media (10% FBS heat inactivated). Inject 2×10^6 624mel cells into the left flank of nude mice. When tumors reach 200 mm^3, treat mice with anti-TYRP1 antibodies, DTIC, or a combination of anti-TYRP1 antibodies and DTIC. Administer 40 mg/kg antibodies once per week. Administer DTIC 5 mg/kg once per week. Measure tumors with calipers twice a week and calculate % T/C. For metastatic model, harvest, wash and resuspend cultured SKmel23, 888mel and B16 melanoma cells, in RPMI 1640 media (10% FBS heat inactivated). Inject SKmel23, 888mel and B16 melanoma cells intravenously. On the second day after the tumor injection, administer to mice anti-TYRP1 antibodies or control human IgG. Sacrifice mice on day 20, remove lungs, count lung surface nodules and calculate percent inhibition.

624mel xenograft = assay: 624mel subcutaneous xenograft model; type: in vivo, nude mice
Protocol: as §1
(§5) Harvest, wash and resuspend 624mel cultured cells in a 50/50 solution of Matrigel and RPMI 1640 media (10% FBS heat inactivated). For the subcutaneous tumor model, inject 2×10^6 cells subcutaneously into the left flank of nude mice. When tumors reach 200 mm^3, treat mice with anti-TYRP1 antibodies or control human IgG; administer antibodies 1 mg/mouse three times per week. Measure tumors with calipers twice a week and calculate % T/C. […] Tumor growth was inhibited and reached statistical significance at day 16 post initiation of antibody treatment (T/C=44%; P=0.01). […] Lysates of skins from different species are incubated with TA99 (5 μg/ml) for 2 hours at room temperature. The lysates are then precipitated with protein A and subjected to SDS-PAGE under reducing and non-reducing conditions using […]. After electrophoresis, the gels are transferred to PVDF membrane (Invitrogen Life Technologies). […] The blot is developed using a chemiluminescent substrate (KPL, Gaithersburg, Md.).
For the subcutaneous tumor model, harvest, wash and resuspend 624mel cultured cells in a 50/50 solution of Matrigel and RPMI 1640 media (10% FBS heat inactivated), then inject 2×10^6 624mel cells subcutaneously into the left flank of nude mice. […] Measure tumors with calipers twice a week and calculate % T/C. […]

human SKmel23 cells = assay: SKmel23 metastatic melanoma model (lung surface nodules); type: in vivo, nude mice; details: for reduced metastasis (percent inhibition of lung nodules): SKmel23 i.v., day 20
Protocol: as §1, §2
as §3, with “2:” for “1:”, “human SKmel23” for “B16BL6”, “two” for “three”, “μg/mouse and” for “μg/mouse,”, “μg/mouse).” for “μg/mouse, and 1 mg/mouse).”
as §4

888mel cells = assay: 888mel metastatic melanoma model (lung surface nodules); type: in vivo, nude mice
Protocol: as §1
For the metastatic model, harvest, wash and resuspend 888mel cultured cells in RPMI 1640 media (10% FBS heat inactivated), inject 888mel cells intravenously. On the second day after the tumor injection, administer to mice anti-TYRP1 antibodies or control human IgG. Sacrifice mice on day 20, remove lungs, count lung surface nodules and calculate percent inhibition.
For the subcutaneous model, harvest, wash and resuspend cultured 624mel cells, in a 50/50 solution of Matrigel and RPMI 1640 media (10% FBS heat inactivated). Inject 2×10^6 624mel cells into the left flank of nude mice. […]

[2] = test system: TYRP1 (+) human 624mel cells; assay: Antibody dependent cellular cytotoxicity (ADCC) against human melanoma in vitro; type: cell-based; details: 624mel cells in vitro
Protocol: Collect and wash 624mel cells with a suitable media, such as AIM V media (Invitrogen Life Technologies) and plate the cells at a density of 10,000 cells /well in a 100 μL volume, in a 96-well Falcon U bottom plate. Add antibodies at 5 μg/mL in a 50 μL volume and incubate at 37° C. for 0.5 hr with target cells. Effector cells were added in a volume of 50 μL at various E:T (effector:target) ratios. Plates were further incubated for 4 hrs at 37° C. After incubation, plates were spun down at 800 g, and 100 μL of supernatants were gently transferred to 96 well flat bottom plates. Lactate dehydrogenase assay reagent was added as specified by the manufacturer (Roche) and plates were read at 490 nm. Controls in assay: Target Spontaneous and Target Maximum (by adding 50 μL of 4% triton).
Lysis is dependent on the effector to target concentration with lysis of 50% of target cells occurring at an E:T ratio of 100:1.

Human FcR = Human FcR binding; details: Table 4 summary
SKmel28 xenografts = assay: SKmel28 subcutaneous xenograft model; type: in vivo, nude mice
Protocol: as §1, §5
Mix Skmel28 cells in a 50/50 solution of Matrigel and RPMI 1640 media (10% FBS heat inactivated). Inject 2×10^6 cells subcutaneously into the left flank of nude mice. When tumors reach 200 mm^3, treat mice with anti-TYRP1 antibodies (6 mg/kg, 20 mg/kg, or 60 mg/kg) or control human IgG three times per week. Measure tumors with calipers twice a week and calculate % T/C. […] The anti-tumor effects at each dose were statistically significant: […] (T/C=50%; P=0.04), […] (T/C=19%; P<0.003).

Question: What does the source list for “20D7: recombinant human monoclonal antibody, full length IgG1κ targeting TYRP1; heavy chain SEQ ID NO 29, light chain SEQ ID NO 32 [Antibody 20D7]”?
Answer: induction of CDC (in words) [1]: induce CDC; Human CDC (%) [1]: 100%; complement-mediated cell lysis (in words) ([1]; antibody concentration of 3.7 μg/mL): complete cell lysis; Inhibition of lung metastases (B16BL6 murine melanoma; 200 μg/mouse): 65%; Inhibition of lung metastases (B16BL6 murine melanoma; 500 μg/mouse): 74%; Inhibition of lung metastases (B16BL6 murine melanoma; 1 mg/mouse): 95%; % inhibition (B16BL6 murine melanoma; Table 9, Metastatic, B16): 95%; T/C (624mel xenograft; 624mel subcutaneous xenograft, 40 mg/kg twice per week): 21%; % T/C (624mel xenograft; Table 9, Subcutaneous, 624mel, antibody 40 mg/kg once per week, DTIC 5 mg/kg once per week): 50%; T/C (624mel xenograft; established 624mel tumors, 1 mg/mouse three times per week, day 16 post initiation of antibody treatment): 44%; reduced metastasis (percent inhibition of lung nodules) (human SKmel23 cells; 200 μg/dose): 58%; reduced metastasis (percent inhibition of lung nodules) (human SKmel23 cells; 500 μg/dose): 73%; % inhibition (human SKmel23 cells; Table 9, Metastatic, SKmel23): 80%; inhibition of lung surface metastasis (888mel cells; 888mel i.v. in nude mice, day 20): 77%; % inhibition (888mel cells; Table 9, Metastatic, 888 mel): 77%; induction of ADCC (in words) [2]: induce ADCC; Human FcR binding (Human FcR): 110 pM; T/C (SKmel28 xenografts; SKmel28 dose response, 6 mg/kg three times per week): 69%; T/C (SKmel28 xenografts; SKmel28 dose response, printed as 6 mg/kg and 20 mg/kg, three times per week): 50%; T/C (SKmel28 xenografts; SKmel28 dose response, printed as 6 mg/kg and 60 mg/kg, three times per week): 19%; T/C (SKmel28 xenografts; SKmel28 xenografts, vs human IgG control, day 43): 51%

Question: Which “induction of CDC (in words)” value [1] does the source give for “CTA99: chimeric anti-TYRP1 antibody with TA99 variable regions and human constant region IgG1; SEQ ID NO 31 and 33” here?
Answer: induce CDC

Question: What about the “Human CDC (%)” value [1] of the same substance?
Answer: 94%

Question: What about the “CDC percentage of cytotoxicity” value ([1]; antibody concentration 0.05 μg/mL) of the same substance?
Answer: 9.5%

Question: And the “CDC percentage of cytotoxicity” value ([1]; antibody concentration 0.41 μg/mL)?
Answer: 53%

Question: And the “CDC percentage of cytotoxicity” value ([1]; antibody concentration 1.23 μg/mL)?
Answer: 54%

Question: And the “CDC percentage of cytotoxicity” value ([1]; antibody concentration 3.7 μg/mL)?
Answer: 95%

Question: And the “reduced metastasis (percent inhibition of lung nodules)” value (human SKmel23 cells; 200 μg/dose)?
Answer: 63%

Question: And the “reduced metastasis (percent inhibition of lung nodules)” value (human SKmel23 cells; 500 μg/dose)?
Answer: 75%

Question: And the “induction of ADCC (in words)” value [2]?
Answer: induce ADCC
